Assays:
EGFR L858R/T790M = EGFR L858R/T790M (Homo sapiens (Human), UniProt P00533, L858R/T790M); assay: TR-FRET assay for ERBB kinases; assay type: biochemical; details: geometric mean if measured more than once
Method in brief: (§1)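 Kinase pre-incubated 10 min with compound in pH 7.5 HEPES buffer with MgCl2 and DTT, then reacted 10 min at room temperature with fluorescein-poly-GluTyr and ATP (substrate mix at 3 mM ATP, 30 uM peptide). EDTA-quenched; Tb-pY20 antibody TR-FRET read at 520/490 nm.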

EGFR L858R/T790M/C797S = EGFR L858R/T790M/C797S (Homo sapiens (Human), UniProt P00533, C797S/L858R/T790M); assay: TR-FRET assay for ERBB kinases; assay type: biochemical; details: geometric mean if measured more than once
Method in brief: as §1

EGFR WT = EGFR WT (Homo sapiens (Human), UniProt P00533); assay: TR-FRET assay for ERBB kinases; assay type: biochemical; details: geometric mean if measured more than once
Method in brief: as §1

EGFR Exon20NPG = EGFR Exon20NPG (Homo sapiens (Human), UniProt P00533, INS770NPG); assay: TR-FRET assay for ERBB kinases; assay type: biochemical; details: geometric mean if measured more than once
Method in brief: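 Compounds pre-incubated 10 min with kinase in HEPES pH 7.5 buffer (MgCl2, DTT, Pluronic), then reaction started with substrate mix (3 mM ATP, 30 µM fluorescein-poly-GluTyr, stock levels) for 10 min at room temperature. EDTA-quenched, detected by Tb-pY20 antibody TR-FRET (520/490 nm emission).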

[1] = molecular target: EGFR L858R/T790M double mutant (H1975) (Homo sapiens (Human), UniProt P00533, L858R/T790M); assay: EGFR protein degradation assay (Western blot); assay type: cell-based; details: 72 hours, 300 nM to 10 nM
Method in brief: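 Cells carrying the relevant EGFR form were plated at 300,000 cells per well in 6-well plates and left to attach overnight. After washing in ice-cold PBS, cells were lysed in 400 μl lysis buffer with protease inhibitors, scraped, and clarified at 10 000 rpm for 10 minutes. EGFR levels were then assessed by Western blot with tubulin as loading control.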

[2] = molecular target: EGFR L858R/T790M/C797S triple mutant (H520*) (Homo sapiens (Human), UniProt P00533, C797S/L858R/T790M); assay: EGFR protein degradation assay (Western blot); assay type: cell-based; details: 72 hours, 300 nM to 10 nM
Procedure: EGFR Protein Degradation assay
Cells were incubated overnight at 37° C., 5% CO2 prior to compound addition. A 10 mM compound stock in DMSO was serially diluted in DMSO to provide the following stock concentrations: 1, 0.3, 0.1, 0.03 and 0.01 mM. An appropriate volume of each compound dilution, together with a DMSO vehicle control, was added to media to provide a 2× compound solution. […] At the end of the compound treatment, cells were washed once with ice-cold phosphate-buffered saline (PBS) and treated with lysis solution (1× lysis buffer, Cell Signaling Technologies (CST #9803) supplemented with Piarce™ protease inhibitors, #A32953, Thermo Fisher Scientific, TFS). Lysates were collected and clarified of cell debris by spinning at 10K rpm for 10 minutes. A specific volume of supernatant was retrieved for protein quantification (Pierce™ BCA kit, TFS #23225) and for Western analysis. Loading buffer supplemented with EDTA and reducing agent was added to each supernatant. A specific volume of supernatant (determined by protein assay: […] loaded per sample) was loaded into a NuPAGE™ 4-12% Bis-Tris gel (TFS). Samples were run at 165V in MOPS running buffer for 2 hours and then transferred to PVDF blotting membrane using a dry blotting system (iBlot2, TFS). Membranes were blocked in Tris-buffered saline supplemented with Tween, 0.1% (TBST) containing 5% non-fat dry milk, (AmericanBio). Following block, membranes were washed once with TBST. […] Membranes were washed 3× with TBST prior to addition of secondary antibody (1:10 000, anti-rabbit HRP-linked, CST #7074) in TBST with 3% BSA and then incubated at room temperature for one hour. Membranes were then washed 3× with TBS and signal developed by exposure to developer (SuperSignal West Femto, TFS) for 5 minutes. Membranes were then immediately imaged using a BioRad Chemidoc.

Sequence of EGFR Exon20NPG (P00533 other isoform, or with tags, fused parts or gaps del 1-694/ins NPG behind 770 limits assumed): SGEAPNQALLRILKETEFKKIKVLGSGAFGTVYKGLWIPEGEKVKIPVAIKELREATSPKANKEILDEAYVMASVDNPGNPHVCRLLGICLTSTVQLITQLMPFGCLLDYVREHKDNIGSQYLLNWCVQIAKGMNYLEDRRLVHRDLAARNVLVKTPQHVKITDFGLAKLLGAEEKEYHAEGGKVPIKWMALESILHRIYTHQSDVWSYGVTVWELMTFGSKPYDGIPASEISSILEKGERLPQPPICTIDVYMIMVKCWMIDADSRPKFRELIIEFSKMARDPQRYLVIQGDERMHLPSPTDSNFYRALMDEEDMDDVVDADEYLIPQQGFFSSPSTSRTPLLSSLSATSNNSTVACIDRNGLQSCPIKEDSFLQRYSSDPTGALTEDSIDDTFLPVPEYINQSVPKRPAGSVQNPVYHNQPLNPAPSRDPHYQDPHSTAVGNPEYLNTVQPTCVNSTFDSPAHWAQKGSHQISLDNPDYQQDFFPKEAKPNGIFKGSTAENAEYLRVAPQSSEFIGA
Sequence of EGFR L858R/T790M/C797S (P00533 25-1210 T790M/C797S/L858R): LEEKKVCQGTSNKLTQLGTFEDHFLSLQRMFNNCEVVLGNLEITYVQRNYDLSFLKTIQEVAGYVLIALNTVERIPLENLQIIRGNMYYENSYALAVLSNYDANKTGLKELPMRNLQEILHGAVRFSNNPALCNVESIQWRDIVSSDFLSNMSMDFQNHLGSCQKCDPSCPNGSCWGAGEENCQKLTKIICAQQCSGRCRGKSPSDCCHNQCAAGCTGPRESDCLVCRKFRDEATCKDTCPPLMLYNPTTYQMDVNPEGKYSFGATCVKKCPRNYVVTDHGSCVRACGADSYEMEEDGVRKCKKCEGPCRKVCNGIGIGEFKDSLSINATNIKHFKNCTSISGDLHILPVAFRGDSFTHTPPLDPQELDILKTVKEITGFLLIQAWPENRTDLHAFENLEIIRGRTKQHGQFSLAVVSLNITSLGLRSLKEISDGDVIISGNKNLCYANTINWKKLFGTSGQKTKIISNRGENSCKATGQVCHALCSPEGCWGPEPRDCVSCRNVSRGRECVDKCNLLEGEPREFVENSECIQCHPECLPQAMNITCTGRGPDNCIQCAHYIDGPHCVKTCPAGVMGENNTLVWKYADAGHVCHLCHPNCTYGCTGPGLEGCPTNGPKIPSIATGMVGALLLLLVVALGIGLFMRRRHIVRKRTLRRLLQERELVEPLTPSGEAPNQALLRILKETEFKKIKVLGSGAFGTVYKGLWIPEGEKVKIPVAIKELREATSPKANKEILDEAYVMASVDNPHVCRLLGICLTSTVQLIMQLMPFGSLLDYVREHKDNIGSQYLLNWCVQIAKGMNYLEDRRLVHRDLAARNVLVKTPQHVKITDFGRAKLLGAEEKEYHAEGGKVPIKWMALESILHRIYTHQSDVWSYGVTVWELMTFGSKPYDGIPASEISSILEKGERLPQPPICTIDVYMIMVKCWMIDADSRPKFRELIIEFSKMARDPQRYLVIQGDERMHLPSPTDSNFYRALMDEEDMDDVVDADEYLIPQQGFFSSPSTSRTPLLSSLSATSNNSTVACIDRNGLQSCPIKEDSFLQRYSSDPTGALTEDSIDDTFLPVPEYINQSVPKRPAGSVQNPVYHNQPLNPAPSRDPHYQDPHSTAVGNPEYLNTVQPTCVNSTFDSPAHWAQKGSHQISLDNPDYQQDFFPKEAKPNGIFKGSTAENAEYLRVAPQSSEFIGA
Sequence of EGFR L858R/T790M/C797S triple mutant (H520*) (P00533 25-1210 T790M/C797S/L858R): as above
Sequence of EGFR L858R/T790M double mutant (H1975) (P00533 25-1210 T790M/L858R): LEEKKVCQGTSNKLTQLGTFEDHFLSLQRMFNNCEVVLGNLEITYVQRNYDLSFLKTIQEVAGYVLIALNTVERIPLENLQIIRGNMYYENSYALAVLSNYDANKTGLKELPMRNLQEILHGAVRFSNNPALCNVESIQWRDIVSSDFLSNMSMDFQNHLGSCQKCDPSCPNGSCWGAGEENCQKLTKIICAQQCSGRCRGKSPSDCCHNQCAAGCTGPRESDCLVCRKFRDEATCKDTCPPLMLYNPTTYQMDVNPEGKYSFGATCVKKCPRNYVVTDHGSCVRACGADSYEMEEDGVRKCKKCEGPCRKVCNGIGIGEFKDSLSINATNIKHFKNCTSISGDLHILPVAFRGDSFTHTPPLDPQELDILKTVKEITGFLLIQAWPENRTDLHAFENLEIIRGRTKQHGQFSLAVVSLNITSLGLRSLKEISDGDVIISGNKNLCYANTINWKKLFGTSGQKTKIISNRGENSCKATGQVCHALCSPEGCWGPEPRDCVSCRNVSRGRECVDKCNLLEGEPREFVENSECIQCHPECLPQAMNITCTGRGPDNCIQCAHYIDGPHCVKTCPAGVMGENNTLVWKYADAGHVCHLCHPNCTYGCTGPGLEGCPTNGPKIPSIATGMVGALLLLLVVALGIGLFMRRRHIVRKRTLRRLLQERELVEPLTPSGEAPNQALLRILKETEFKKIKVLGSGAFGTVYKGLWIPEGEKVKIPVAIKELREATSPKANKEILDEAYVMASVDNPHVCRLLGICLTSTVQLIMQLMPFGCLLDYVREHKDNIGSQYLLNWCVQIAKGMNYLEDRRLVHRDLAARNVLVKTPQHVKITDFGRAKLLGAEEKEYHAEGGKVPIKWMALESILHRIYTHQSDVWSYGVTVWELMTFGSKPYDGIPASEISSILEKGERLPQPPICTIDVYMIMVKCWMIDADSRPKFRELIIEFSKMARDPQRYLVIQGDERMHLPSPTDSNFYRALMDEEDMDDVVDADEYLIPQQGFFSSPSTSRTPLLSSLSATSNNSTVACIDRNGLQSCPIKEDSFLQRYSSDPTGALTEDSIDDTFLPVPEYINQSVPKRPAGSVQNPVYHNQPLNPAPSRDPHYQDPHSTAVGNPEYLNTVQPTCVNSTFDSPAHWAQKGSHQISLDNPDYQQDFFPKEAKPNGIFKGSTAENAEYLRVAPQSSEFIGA

Row | Compound | IC50 (EGFR L858R/T790M) [nM] | IC50 (EGFR L858R/T790M/C797S) [nM] | IC50 (EGFR WT) [nM] | IC50 (EGFR Exon20NPG) [nM] | EGFR protein remaining, EGFR L858R/T790M double mutant [1] | EGFR protein remaining, EGFR L858R/T790M/C797S triple mutant [2]
1 | Cc1ncsc1-c1ccc(CNC(=O)[C@@H]2C[C@@H](O)CN2C(=O)[C@@H](NC(=O)COCCOCCOCCOCC#Cc2cccc3c2C(=O)N(C(C(=O)Nc2nccs2)c2cc(F)ccc2O)C3)C(C)(C)C)cc1 (stereo partly drawn) [compound 254] | 1000 | 100 | 1100 | 5700 | C (>80% EGFR protein remaining after 72 hours of incubation with the test compound at a concentration of 300 nM) | C (>80% EGFR protein remaining after 72 hours of incubation with the test compound at a concentration of 300 nM)
2 | Cc1ncsc1-c1ccc(CNC(=O)[C@@H]2C[C@@H](O)CN2C(=O)[C@H](C(C)C)N2Cc3ccccc3C2=O)c(OCCOCCOCCOCCOCC#Cc2cccc3c2C(=O)N([C@@H](C(=O)Nc2nccs2)c2cc(F)ccc2O)C3)c1 [compound 259] | 3100 | 550 | 2100 | 2100 | C (>80% EGFR protein remaining after 72 hours of incubation with the test compound at a concentration of 300 nM) | C (>80% EGFR protein remaining after 72 hours of incubation with the test compound at a concentration of 300 nM)
3 | O=C1CCC(N2C(=O)c3ccc(OCCOCCOCC#Cc4cccc5c4C(=O)N([C@@H](C(=O)Nc4nccs4)c4cc(F)ccc4O)C5)cc3C2=O)C(=O)N1 (stereo partly drawn) [compound 261] | 3500 | 180 | 2200 | 4900 | C (>80% EGFR protein remaining after 72 hours of incubation with the test compound at a concentration of 300 nM) | C (>80% EGFR protein remaining after 72 hours of incubation with the test compound at a concentration of 300 nM)
4 | Cc1ncsc1-c1ccc([C@H](C)NC(=O)[C@H]2C[C@H](O)CN2C(=O)[C@@H](NC(=O)COCCCC#Cc2cccc3c2C(=O)N(C(C(=O)Nc2nccs2)c2cc(F)ccc2O)C3)C(C)(C)C)cc1 (stereo partly drawn) [compound 92] | 6200 | 1100 | 9800 | 3100 | C (>80% EGFR protein remaining after 72 hours of incubation with the test compound at a concentration of 300 nM) | C (>80% EGFR protein remaining after 72 hours of incubation with the test compound at a concentration of 300 nM)
5 | Cc1ncsc1-c1ccc(CNC(=O)[C@@H]2C[C@@H](O)CN2C(=O)[C@@H](NC(=O)COCCOCCOCCOCCOCC#Cc2cccc3c2C(=O)N(C(C(=O)Nc2nccs2)c2cc(F)ccc2O)C3)C(C)(C)C)cc1 (stereo partly drawn) [compound 255] | 830 | 140 | 580 | 4700 | C (>80% EGFR protein remaining after 72 hours of incubation with the test compound at a concentration of 300 nM) | B (≤80% and >50% EGFR protein remaining after 72 hours of incubation with the test compound at a concentration between 300 nM and 10 nM)
6 | O=C1CCC(N2C(=O)c3cccc(NCCOCCOCCOCCOCC#Cc4cccc5c4C(=O)N([C@@H](C(=O)Nc4nccs4)c4cc(F)ccc4O)C5)c3C2=O)C(=O)N1 (stereo partly drawn) [compound 266] | > 30000 | 2600 | 10000 | > 30000 | C (>80% EGFR protein remaining after 72 hours of incubation with the test compound at a concentration of 300 nM) | C (>80% EGFR protein remaining after 72 hours of incubation with the test compound at a concentration of 300 nM)
